This is an account of results in patent US8889667B2 (Agios Pharmaceuticals, Inc, priority 2010, dated 2014).

Bounds are passed on as bounds.

Chain of PKM2 (P14618 whole entry): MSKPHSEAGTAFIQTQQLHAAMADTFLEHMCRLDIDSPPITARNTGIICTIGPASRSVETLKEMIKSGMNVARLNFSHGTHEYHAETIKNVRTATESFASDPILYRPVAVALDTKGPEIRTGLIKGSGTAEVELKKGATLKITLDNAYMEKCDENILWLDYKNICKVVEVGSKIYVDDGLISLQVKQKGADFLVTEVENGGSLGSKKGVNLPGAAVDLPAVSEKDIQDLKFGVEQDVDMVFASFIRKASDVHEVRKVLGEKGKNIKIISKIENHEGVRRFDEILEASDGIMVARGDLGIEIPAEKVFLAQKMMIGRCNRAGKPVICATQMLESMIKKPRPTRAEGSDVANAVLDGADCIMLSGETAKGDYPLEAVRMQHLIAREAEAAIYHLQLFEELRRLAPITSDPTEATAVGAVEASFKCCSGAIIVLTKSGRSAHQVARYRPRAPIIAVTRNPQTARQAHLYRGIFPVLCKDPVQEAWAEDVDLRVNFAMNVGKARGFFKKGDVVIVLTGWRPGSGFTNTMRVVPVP

For the first assay, the target named is PKM2 (Homo sapiens, UniProt P14618). In words: PKM2 Assay (activation, LDH-coupled, absorbance at 340 nm). The class given is biochemical. The settings on record: Table 4. An outline of the steps:
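Human PKM2 (50 ng/well) was preincubated with compound and coupling mix for 30 min at 4 °C without ADP. Reactions were then started with ADP (0.7 mM) alongside PEP 0.15 mM, NADH 180 μM and LDH, in Tris pH 7.5/KCl/MgCl2/DTT/BSA buffer. A340 was followed at 25 °C and activation reported as AC50.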
As usually defined, the AC50 is the concentration at which the activity in the assay is half-maximal. A high value points to weaker potency. Take `C[C@@H]1CN(C(=O)OC2CCOCC2)CCN1C(=O)c1ccc(NS(=O)(=O)c2cccc3cccnc23)cc1` [Compound 124, (R)-Tetrahydro-2H-pyran-4-yl-3-methyl-4-(4-(quinoline-8-sulfonamido)benzoyl)piperazine-1-carboxylate]: the concentration at half-maximal activity (AC50) lay in the range of 100 to 500 nM. On the same count and under the same terms, next, `C[C@H]1CN(Cc2ccc(Cl)c(F)c2)CCN1C(=O)c1ccc(NS(=O)(=O)c2cccc3cccnc23)cc1` [Compound 138, (S)—N-(4-(4-(4-chloro-3-fluorobenzyl)-2-methylpiperazine-1-carbonyl)phenyl)quinoline-8-sulfonamide]: 100 to 500 nM; `C[C@H]1CN(Cc2ccccc2F)CCN1C(=O)c1ccc(NS(=O)(=O)c2cccc3cccnc23)cc1` [Compound 143, (S)—N-(4-(4-(2-fluorobenzyl)-2-methylpiperazine-1-carbonyl)phenyl)quinoline-8-sulfonamide]: less than 100 nM; `C[C@H]1CN(CC2CCOC2)CCN1C(=O)c1ccc(NS(=O)(=O)c2cccc3cccnc23)cc1` (stereo partly drawn) [Compound 139, N-(4-((2S)-2-methyl-4-((tetrahydrofuran-3-yl)methyl)piperazine-1-carbonyl)phenyl)quinoline-8-sulfonamide]: 100 to 500 nM. On the same count and under the same terms, next, `C[C@H]1CN(C(=O)c2ccccn2)CCN1C(=O)c1ccc(NS(=O)(=O)c2cccc3cccnc23)cc1` [Compound 101]: 100 to 500 nM; `C[C@@H]1CN(C[C@H]2CCCO2)CCN1C(=O)c1ccc(NS(=O)(=O)c2cccc3cccnc23)cc1` [Compound 212, N-(4-((R)-2-methyl-4-(((R)-tetrahydrofuran-2-yl)methyl)piperazine-1-carbonyl)phenyl)quinoline-8-sulfonamide]: less than 100 nM; `C[C@@H]1CN(C(=O)OCCC2CCCCC2)CCN1C(=O)c1ccc(NS(=O)(=O)c2cccc3cccnc23)cc1` [Compound 121, (R)-2-Cyclohexylethyl 3-methyl-4-(4-(quinoline-8-sulfonamido)benzoyl)piperazine-1-carboxylate]: 100 to 500 nM. On the same count and under the same terms, next, `CC(c1c(F)cc(F)cc1F)N1CCN(C(=O)c2ccc(NS(=O)(=O)c3cccc4cccnc34)cc2)[C@H](C)C1` (some centres unmarked) [Compound 167]: less than 100 nM; `O=C1CN(C(=O)c2ccc(NS(=O)(=O)c3cccc4cccnc34)cc2)CCN1CC1CC1` [Compound 214]: 100 to 500 nM; `CC(c1ccc(Cl)c(F)c1)N1CCN(C(=O)c2ccc(NS(=O)(=O)c3cccc4cccnc34)cc2)[C@H](C)C1` (stereo partly drawn) [Compound 157, N-(4-((2R)-4-(1-(4-chloro-3-fluorophenyl)ethyl)-2-methylpiperazine-1-carbonyl)phenyl)quinoline-8-sulfonamide]: 100 to 500 nM. As to `COc1cccc(CN2CCN(C(=O)c3ccc(NS(=O)(=O)c4cccc5cccnc45)cc3)[C@@H](C)C2)c1OC` [Compound 146, (S)—N-(4-(4-(2,3-dimethoxybenzyl)-2-methylpiperazine-1-carbonyl)phenyl)quinoline-8-sulfonamide], the AC50 was in the range of 1000 to 20000 nM. Still for that read-out and setting: next, `O=C(c1ccc(NS(=O)(=O)c2cccc3cccnc23)cc1)N1C2CCC1CN(Cc1ccc(F)cc1)C2` [Compound 226, N-(4-(3-(4-fluorobenzyl)-3,8-diazabicyclo[3.2.1]octane-8-carbonyl)phenyl)quinoline-8-sulfonamide]: less than 100 nM; `CC(C)[C@H]1CN(C(C)c2ccc(F)cc2)CCN1C(=O)c1ccc(NS(=O)(=O)c2cccc3cccnc23)cc1` (some centres unmarked) [Compound 177]: 1000 to 20000 nM; `CC[C@H]1CN(Cc2ccc(F)cc2)CCN1C(=O)c1ccc(NS(=O)(=O)c2cccc3cccnc23)cc1` [Compound 134, (S)—N-(4-(2-ethyl-4-(4-fluorobenzyl)piperazine-1-carbonyl)phenyl)quinoline-8-sulfonamide]: 100 to 500 nM.

The assay is the same for the next values; noted with them: Table 5.
Consider `O=C(c1ccc(NS(=O)(=O)c2cccc3cccnc23)cc1)N1CCN(C2(c3ccccc3)CCCCC2)CC1` [Compound 407, N-(4-(4-(1-phenylcyclohexyl)piperazine-1-carbonyl)phenyl)quinoline-8-sulfonamide], for which the AC50 was less than 100 nM.

Turning to `O=C(c1ccc(NS(=O)(=O)c2cccc3cccnc23)c(OC(F)(F)F)c1)N1CCN(Cc2cccc(F)c2F)CC1` [Compound 375, N-(4-(4-(2,3-difluorobenzyl)piperazine-1-carbonyl)-2-(trifluoromethoxy)phenyl)quinoline-8-sulfonamide], the AC50 was in the range of 100 to 500 nM. The same measure, in the same setting: in the case of `O=C(O[C@@H]1CCOC1)N1CCN(C(=O)c2ccc(NS(=O)(=O)c3cccc4cccnc34)c(OC(F)(F)F)c2)CC1` [Compound 311] it was 1000 to 20000 nM; in that of `CC(C)(C(=O)N1CCN(C(=O)c2ccc(NS(=O)(=O)c3cccc4cccnc34)c(OC(F)(F)F)c2)CC1)c1ccccc1` [Compound 359, N-(4-(4-(2-methyl-2-phenylpropanoyl)piperazine-1-carbonyl)-2-(trifluoromethoxy)phenyl)quinoline-8-sulfonamide], 100 to 500 nM; in that of `O=C(c1ccc(NS(=O)(=O)c2cccc3cccnc23)c(OC(F)(F)F)c1)N1CCN(Cc2cncc(Cl)c2)CC1` [Compound 367, N-(4-(4-((5-chloropyridin-3-yl)methyl)piperazine-1-carbonyl)-2-(trifluoromethoxy)phenyl)quinoline-8-sulfonamide], 100 to 500 nM. The molecule `COc1cc(C(=O)N2CCN(C(C)(C)c3ccccc3)CC2)ccc1NS(=O)(=O)c1cccc2cccnc12` [Compound 356, N-(2-methoxy-4-(4-(2-phenylpropan-2-yl)piperazine-1-carbonyl)phenyl)quinoline-8-sulfonamide] had an AC50 of less than 100 nM. In turn, `O=C(O[C@H]1CCOC1)N1CCN(C(=O)c2ccc(NS(=O)(=O)c3cccc4cccnc34)c(OC(F)(F)F)c2)CC1` [Compound 343, (S)-Tetrahydrofuran-3-yl-4-(4-(quinoline-8-sulfonamido)-3-(trifluoromethoxy)benzoyl)piperazine-1-carboxylate] had a half-maximal activity concentration (AC50) of 1000 to 20000 nM. On the same count and under the same terms, in the case of `O=C(c1ccc(NS(=O)(=O)c2cccc3cccnc23)cc1)N1CCN(C(=O)c2cncs2)CC1` [Compound 348, N-(4-(4-(thiazole-5-carbonyl)piperazine-1-carbonyl)phenyl)quinoline-8-sulfonamide] it was less than 100 nM; in that of `O=C(c1ccc(NS(=O)(=O)c2cccc3cccnc23)nc1)N1CCN(Cc2cc(F)cc(F)c2)CC1` [Compound 413, N-(5-(4-(3,5-difluorobenzyl)piperazine-1-carbonyl)pyridin-2-yl)quinoline-8-sulfonamide], 100 to 500 nM; in that of `COc1ccc(CN2CCN(C(=O)c3ccc(NS(=O)(=O)c4cccc5cccnc45)c(OC(F)(F)F)c3)CC2)cc1` [Compound 310, N-(4-(4-(4-methoxybenzyl)piperazine-1-carbonyl)-2-(trifluoromethoxy)phenyl)quinoline-8-sulfonamide], 100 to 500 nM.

In turn, `O=C(c1ccc(NS(=O)(=O)c2cccc3cccnc23)c(OC(F)(F)F)c1)N1CCN(Cc2ccc(F)c(Cl)c2)CC1` [Compound 376, N-(4-(4-(3-chloro-4-fluorobenzyl)piperazine-1-carbonyl)-2-(trifluoromethoxy)phenyl)quinoline-8-sulfonamide] yielded a concentration at half-maximal activity (AC50) of 100 to 500 nM. `O=C(c1ccc(NS(=O)(=O)c2cccc3cccnc23)cc1)N1CCN(C(=O)c2cocn2)CC1` [Compound 347, N-(4-(4-(oxazole-4-carbonyl)piperazine-1-carbonyl)phenyl)quinoline-8-sulfonamide] registered a concentration at half-maximal activity (AC50) of 100 to 500 nM. On the same count and under the same terms, in the case of `O=C(c1ccc(NS(=O)(=O)c2cccc3cccnc23)cc1F)N1CCN(CC2CCCCO2)CC1` (centres unmarked) [Compound 435, N-(3-fluoro-4-(4-((tetrahydro-2H-pyran-2-yl)methyl)piperazine-1-carbonyl)phenyl)quinoline-8-sulfonamide] it was 100 to 500 nM; in that of `O=C(c1cccnc1)N1CCN(C(=O)c2ccc(NS(=O)(=O)c3cccc4cccnc34)c(OC(F)(F)F)c2)CC1` [Compound 323, N-(4-(4-nicotinoylpiperazine-1-carbonyl)-2-(trifluoromethoxy)phenyl)quinoline-8-sulfonamide], 500 to 1000 nM; in that of `O=C(c1ccc(NS(=O)(=O)c2cccc3cccnc23)c(OC(F)(F)F)c1)N1CCN(Cc2ccncc2Cl)CC1` [Compound 307, N-(4-(4-((3-chloropyridin-4-yl)methyl)piperazine-1-carbonyl)-2-(trifluoromethoxy)phenyl)quinoline-8-sulfonamide], 100 to 500 nM. Molecule `CC(c1cccnc1)N1CCN(C(=O)c2ccc(NS(=O)(=O)c3cccc4cccnc34)cc2)CC1` (centres unmarked) [Compound 370, N-(4-(4-(1-(pyridin-3-yl)ethyl)piperazine-1-carbonyl)phenyl)quinoline-8-sulfonamide] registered an AC50 of less than 100 nM.

In turn, `O=C(c1ccc(NS(=O)(=O)c2cccc3cccnc23)cc1F)N1CCN(Cc2ccc(Cl)c(F)c2)CC1` [Compound 422, N-(4-(4-(4-chloro-3-fluorobenzyl)piperazine-1-carbonyl)-3-fluorophenyl)quinoline-8-sulfonamide] had an AC50 of 100 to 500 nM. On to `O=C(c1ccc(NS(=O)(=O)c2cccc3cccnc23)c(OC(F)(F)F)c1)N1CCN(CCCc2ccccc2)CC1` [Compound 389], for which the half-maximal activity concentration (AC50) lay within 500 to 1000 nM. On the same count and under the same terms, next, `O=C(c1ccc(NS(=O)(=O)c2cccc3cccnc23)c(C(F)(F)F)c1)N1CCN(Cc2ccncc2)CC1` [Compound 328, N-(4-(4-(pyridin-4-ylmethyl)piperazine-1-carbonyl)-2-(trifluoromethyl)phenyl)quinoline-8-sulfonamide]: 1000 to 20000 nM; `COc1cccnc1CN1CCN(C(=O)c2ccc(NS(=O)(=O)c3cccc4cccnc34)c(OC(F)(F)F)c2)CC1` [Compound 373, N-(4-(4-((3-methoxypyridin-2-yl)methyl)piperazine-1-carbonyl)-2-(trifluoromethoxy)phenyl)quinoline-8-sulfonamide]: 100 to 500 nM. On the same count and under the same terms, in the case of `O=C(c1ccc(NS(=O)(=O)c2cccc3cccnc23)cc1)N1CCN(C(=O)c2cc[nH]n2)CC1` [Compound 350, N-(4-(4-(1H-pyrazole-3-carbonyl)piperazine-1-carbonyl)phenyl)quinoline-8-sulfonamide] it was 100 to 500 nM.
